One assay has as its system AAA formation. The settings on record: both low and high dose of Nifedipine alone; earlier study; cited from earlier work.
The subject of assay [1] is Fbnic1^C1039G/+ Marfan Syndrome (MFS) mice. The settings on record: FA diet; cited from earlier work.
The test system of assay [2] is Ang II infused hph-1 mice. The settings on record: oral FA administration; cited from earlier work.
Assay [3] relates to Ang II-infused apoE null mice. The settings on record: oral FA administration, previously observed; cited from earlier work.
In assay [4] the test system is total superoxide production in aortas. As to the kind of experiment: Electron spin resonance determination of total aortic superoxide production. The settings on record: FA 15 mg/kg/day oral; ESR. Format: in vivo, mice.
From the text: Therefore, changes in aortic total superoxide production and eNOS uncoupling activity from all treatment groups is examined herein. Freshly prepared aortic lysates were subjected to electron spin resonance (ESR) determination of superoxide production with and without L-NAME, an inhibitor of NOS. If eNOS is functional and coupled, its inhibition by L-NAME will increase the measured superoxide, as eNOS is producing NO to scavenge superoxide. However, if eNOS is dysfunctional, uncoupled and producing superoxide, its inhibition with L-NAME will lead to a decrease in measured superoxide.
Aortic superoxide production was determined by electron spin resonance (ESR). In brief, freshly isolated aortas were homogenized in lysis buffer containing 1:100 protease inhibitor cocktail (MilliporeSigma, P8340), centrifuged at 12,000 rpm for 15 min, and protein supernatant collected. After determination of protein concentration using a protein assay kit (Bio-Rad), five μg of the protein was loaded into ice-cold and nitrogen bubbled modified Krebs/HEPES buffer (KHB, in mmol/L: NaCl 99; KCl 4.7; MgSO41.2; KH2PO4 1.0; CaCl2 1.9; NaHCO3 25; glucose 11.1, NaHEPES 20) containing diethyldithiocarbamic acid (5 mmol/L), deferoxamine (25 mmol/L), and the superoxide specific spin trap methoxycarbonyl-2,2,5,5-tetramethylpyrrolidine (CMH, 500 μmol/L, Axxora, San Diego, CA, USA). […]
Assay [5] has as its system Ang II infused apoE null mice. Briefly: H&E staining of aortic sections, vascular remodeling. Format: in vivo. The settings on record: FA 15 mg/kg/day oral.
From the text: To examine the extent of the vascular remodeling that occurred during AAA in the presence of various treatments, freshly isolated aortas were embedded in paraffin, sectioned and stained with hematoxylin-eosin (H&E).
At the end of the study period of 4 weeks, animals were euthanized with CO2. The aortas were rapidly removed from the body, rinsed with ice cold Krebs/HEPES buffer, and cleaned of connective tissue and fat. […] For histological analyses, small sections (5 mm) of the abdominal aortas of the suprarenal region were removed and fixed in 4% paraformaldehyde overnight, followed by incubation for 24 hours in 10% sucrose, and then embedded in paraffin. In the case of AAA, a center section of the AAA was used for these analyses. Sections were sliced at 5μm at UCLA Pathology Core, and subjected to hematoxylin-eosin (H&E) staining following standard protocol.
Assay [6] deals with Ang II infused apoE null mice. As to the kind of experiment: Verhoeff-Van Gieson (VVG) staining, medial elastin degradation. Format: in vivo. The settings on record: FA 15 mg/kg/day oral.
Method: To assess medial elastin degradation, VVG staining was performed using aortic sections from all experimental groups.
Paraffin embedded aortic sections were deparaffinized by sequential washes in xylene (2x), descending ethanol from 100%, 90%, 75% to 50%, and distilled water. Sections were stained in Verhoeff s solution for 70 min, followed by differentiation in 2% ferric chloride for 90 seconds. Sections were incubated with 5% sodium thiosulfate for 60 seconds, followed by counterstaining with Van Gieson's solution. Sections were then subjected to dehydration with 95% and 100% alcohol, and finally washed in xylene. After drying, sections were mounted with Permount mounting media (SP15-100, Thermo-Fisher Scientific, Pittsburgh, PA, USA), and images captured by a Nikon TE2000-U fluorescent microscope.
Assay [7] deals with Ang II infused apoE null mice. Briefly: Ultrasound detection of abdominal aortic size (enlargement of abdominal aortas). Format: in vivo. The settings on record: FA 15 mg/kg/day oral; weekly ultrasound over 4 weeks; vs. apoE+Ang II. The method, then:
The back area between the shoulder blades was cleaned of hair and disinfected. Then a small incision was made at the cleaned site; the osmotic minipump (Alzet, model 2004) containing Ang II (1000 ng/kg/min, Sigma-Millipore, St. Louis, MO, USA) was subcutaneously implanted into the mice. The surgical wounds were closed with surgical staples, and then animals were allowed to recover in a heated cage. […] The enlargement of abdominal aortas in various experimental groups was monitored using ultrasound. Animals were anesthetized with isoflurane and placed on a temperature-controlled table. Isoflurane levels were adjusted throughout the experiment to maintain heart rate between 400 and 500 bpm while keeping the animal sufficiently anesthetized. Hair was removed from the abdomen using a hair removal cream, and preheated ultrasound transmission gel was applied onto the abdomen area. An ultrasound probe was placed on the gel to visualize aorta transversely (Vevo 2100, MS400, 30 MHz. FUJIFILM VisualSonics, Inc., Toronto, Ontario, Canada). The aorta was identified using Doppler measurement for the presence of pulsatile flow.

Another assay concerns aortic H4B. Briefly: HPLC determination of aortic H4B bioavailability. Type of assay: in vivo, mice. The settings on record: FA 15 mg/kg/day oral. The procedure:
After centrifugation, 10 μl of the supernatant was injected into a HPLC system equipped with a fluorescent detector (Schimadzu America Inc, Carlsbad, CA, USA). Excitation and emission wavelengths of 350 nm and 450 nm were used to measure H4B levels.

Assay [8] deals with Ang II infused apoE null mice. As to the kind of experiment: Incidence of AAA in Ang II infused apoE null mice (ultrasound and post-mortem inspection). Type of assay: in vivo.
From the text: The use of animals and experimental procedures were approved by the Institutional Animal Care and Usage Committee (IACUC) at the University of California Los Angeles (UCLA). Breeders of apoE null mice were purchased from Jackson Labs (Bar Harbor, ME, Strain B6.129P2-ApoEtmlUnc/J), and bred in house. Animals were kept in ventilated cages, with free access to water and standard chow under the standard care of Division of Laboratory Animal Medicine (DLAM) staff. Male apoE null mice of 6-8 months old were used for experimentation.
The animals receiving Ang II infusion were anesthetized in an isoflurane chamber with 5% isoflurane, and then moved to a nose cone with sustained supply of 1.5-2% isoflurane to maintain the anesthetic state. The back area between the shoulder blades was cleaned of hair and disinfected. Then a small incision was made at the cleaned site; the osmotic minipump (Alzet, model 2004) containing Ang II (1000 ng/kg/min, Sigma-Millipore, St. Louis, MO, USA) was subcutaneously implanted into the mice. The surgical wounds were closed with surgical staples, and then animals were allowed to recover in a heated cage.
At the end of the study period of 4 weeks, animals were euthanized with CO2. The aortas were rapidly removed from the body, rinsed with ice cold Krebs/HEPES buffer, and cleaned of connective tissue and fat. The incidence of AAA was determined by ultrasound assessment of abdominal aortic expansion as described above, and by direct inspection of the abdominal aortas post-mortem.

Where “and” joins values, the source holds several entries; their conditions need not be identical. Identical values can stand only once.

Take `COC(=O)C1=C(C)NC(C)=C(C(=O)OC)C1c1ccccc1[N+](=O)[O-]` [Nifedipine]: in the assay on AAA formation, the AAA formation result is “able to attenuate AAA formation”.
As to `Nc1nc2ncc(CNc3ccc(C(=O)N[C@@H](CCC(=O)O)C(=O)O)cc3)nc2c(=O)[nH]1` [FA, folic acid], the “formation of TAA and AAA” value in assay [1] is “attenuated formation of TAA and AAA”. For the same compound, the AAA formation entry in assay [2] is given as “markedly attenuated”. Also, the aneurysm formation entry in assay [3] is given as “abrogated aneurysm formation”. Also, in [4], the “total superoxide production in aortas” value was “markedly abrogated”. Further, in assay [5], the “vascular remodeling featured by elastic degradation and adventitial hypertrophy” value is given as “markedly attenuated”. Besides, the “elastin degradation featured by flattening and breakdown” value in [6] was “significantly attenuated”. Also, in [7], the “enlargement of abdominal aortas” value is “significantly attenuated”. In addition, the “Ang II induced H4B deficiency” value in the assay with aortic H4B is “significantly abrogated”. In [8] (FA 15 mg/kg/day oral in chow, 4 weeks Ang II infusion, Ang II alone 85.71%), the “incidence of AAA” value came to 18.75%. The “numbers of animals developed AAA and animals examined” value in assay [8] (FA 15 mg/kg/day, b210 developed out of examined, b50 examined/developed) was 6 out of 32 and 32/6.
